Patent US8071768B2, “Alkylquinoline and alkylquinazoline kinase modulators” (Janssen Pharmaceutica, N.V., priority 2005, dated 2011)

target: T1, TrkB (Homo sapiens, UniProt Q16620); assay: Trk B Fluorescence Polarization Kinase Assay; assay type: biochemical; conditions: uncertainty ±10%
T1 construct: purchased Upstate 14-507M
Procedure, shortened: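 The TrkB kinase reaction (50 nM enzyme, 20 ug/mL poly Glu4Tyr, 150 uM ATP, 5 mM MgCl2, 1% DMSO) ran 30 minutes at room temperature and was stopped with EDTA. Phosphorylation was detected by fluorescence-polarization displacement of a fluorescein phosphopeptide from an anti-phosphotyrosine antibody. IC50 came from a variable-slope sigmoidal fit of triplicates.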

T1 sequence (Q16620 32-822): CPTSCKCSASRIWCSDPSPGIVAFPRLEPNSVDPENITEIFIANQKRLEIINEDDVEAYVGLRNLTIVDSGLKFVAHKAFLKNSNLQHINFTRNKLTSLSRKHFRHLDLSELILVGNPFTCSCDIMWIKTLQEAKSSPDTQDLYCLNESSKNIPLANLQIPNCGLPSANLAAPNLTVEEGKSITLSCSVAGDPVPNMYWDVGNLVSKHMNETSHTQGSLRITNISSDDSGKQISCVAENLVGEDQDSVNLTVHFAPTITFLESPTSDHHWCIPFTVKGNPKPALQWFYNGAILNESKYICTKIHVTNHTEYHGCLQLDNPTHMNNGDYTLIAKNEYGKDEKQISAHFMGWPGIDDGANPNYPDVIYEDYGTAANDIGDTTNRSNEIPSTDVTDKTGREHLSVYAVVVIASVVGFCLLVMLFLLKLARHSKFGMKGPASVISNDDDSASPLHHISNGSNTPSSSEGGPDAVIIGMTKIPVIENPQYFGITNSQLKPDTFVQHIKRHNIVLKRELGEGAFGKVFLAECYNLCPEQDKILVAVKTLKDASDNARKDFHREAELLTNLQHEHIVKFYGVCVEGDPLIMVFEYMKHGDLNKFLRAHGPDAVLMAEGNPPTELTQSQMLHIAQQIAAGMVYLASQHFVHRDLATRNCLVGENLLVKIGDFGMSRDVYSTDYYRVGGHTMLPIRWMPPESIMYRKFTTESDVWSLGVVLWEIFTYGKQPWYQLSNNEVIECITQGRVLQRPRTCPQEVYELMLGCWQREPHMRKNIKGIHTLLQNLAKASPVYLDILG

Compound	IC50 [µM]
O=C(Nc1ccc(N2CCOCC2)cc1)N1CCC(c2ncnc3cc(N4CC[C@H](O)C4)ccc23)CC1 [Compound 128, 4-[7-(3-Hydroxy-pyrrolidin-1-yl)-quinazolin-4-yl]-piperidine-1-carboxylic acid (4-morpholin-4-yl-phenyl)-amide]	> 20
COC[C@H]1CCCN1c1ccc2c(C3CCN(C(=O)Nc4ccc(N5CCOCC5)cc4)CC3)ncnc2c1 [Compound 130, (R)-4-[7-(2-Methoxymethyl-pyrrolidin-1-yl)-quinazolin-4-yl]-piperidine-1-carboxylic acid (4-morpholin-4-yl-phenyl)-amide]	> 42
O=C(Nc1ccc(N2CCOCC2)cc1)N1CCC(c2ncnc3cc(N4CCC[C@@H]4CO)ccc23)CC1 [Compound 132, (R)-4-[7-(2-Hydroxymethyl-pyrrolidin-1-yl)-quinazolin-4-yl]-piperidine-1-carboxylic acid (4-morpholin-4-yl-phenyl)-amide]	> 42
O=C(Nc1ccc(N2CCOCC2)cc1)N1CCC(c2ncnc3cc(OCCCN4CCOCC4)ccc23)CC1 [Compound 133, 4-[7-(3-Morpholin-4-yl-propoxy)-quinazolin-4-yl]-piperidine-1-carboxylic acid (4-morpholin-4-yl-phenyl)-amide]	> 42
CCN(CC)CCCOc1ccc2c(C3CCN(C(=O)Nc4ccc(N5CCOCC5)cc4)CC3)ncnc2c1 [Compound 134, 4-[7-(3-Diethylamino-propoxy)-quinazolin-4-yl]-piperidine-1-carboxylic acid (4-morpholin-4-yl-phenyl)-amide]	> 42
CN1CCN(c2ccc3c(C4CCN(C(=O)Nc5ccc(N6CCOCC6)cc5)CC4)ncnc3c2)CC1 [Compound 135, 4-[7-(4-Methyl-piperazin-1-yl)-quinazolin-4-yl]-piperidine-1-carboxylic acid (4-morpholin-4-yl-phenyl)-amide]	> 42
CCN1CCN(c2ccc3c(C4CCN(C(=O)Nc5ccc(N6CCOCC6)cc5)CC4)ncnc3c2)CC1 [Compound 136, 4-[7-(4-Ethyl-piperazin-1-yl)-quinazolin-4-yl]-piperidine-1-carboxylic acid (4-morpholin-4-yl-phenyl)-amide]	> 42
O=C(Nc1ccc(N2CCOCC2)cc1)N1CCC(c2ncnc3cc(N4CCN(CCO)CC4)ccc23)CC1 [Compound 137, 4-{7-[4-(2-Hydroxy-ethyl)-piperazin-1-yl]-quinazolin-4-yl}-piperidine-1-carboxylic acid (4-morpholin-4-yl-phenyl)-amide]	> 42
CN1CCCN(c2ccc3c(C4CCN(C(=O)Nc5ccc(N6CCOCC6)cc5)CC4)ncnc3c2)CC1 [Compound 138, 4-[7-(4-Methyl-[1,4]diazepan-1-yl)-quinazolin-4-yl]-piperidine-1-carboxylic acid (4-morpholin-4-yl-phenyl)-amide]	> 42
O=C(Nc1ccc(N2CCOCC2)cc1)N1CCC(c2ncnc3cc(N4CCC[C@H]4CO)ccc23)CC1 [Compound 139, (S)-4-[7-(2-Hydroxymethyl-pyrrolidin-1-yl)-quinazolin-4-yl]-piperidine-1-carboxylic acid (4-morpholin-4-yl-phenyl)-amide]	33.8
O=C(Nc1ccc(N2CCOCC2)cc1)N1CCC(c2ncnc3cc(N4CCNCC4)ccc23)CC1 [Compound 140, 4-(7-piperazin-1-yl-quinazolin-4-yl)-piperidine-1-carboxylic acid (4-morpholin-4-yl-phenyl)-amide]	> 42
CS(=O)(=O)CCNc1ccc2c(C3CCN(C(=O)Nc4ccc(N5CCOCC5)cc4)CC3)ncnc2c1 [Compound 146, 4-[7-(2-Methanesulfonyl-ethylamino)-quinazolin-4-yl]-piperidine-1-carboxylic acid (4-morpholin-4-yl-phenyl)-amide]	> 42
CN(C)[C@@H]1CCN(c2ccc3c(C4CCN(C(=O)Nc5ccc(N6CCOCC6)cc5)CC4)ncnc3c2)C1 [Compound 150, (R)-4-[7-(3-Dimethylamino-pyrrolidin-1-yl)-quinazolin-4-yl]-piperidine-1-carboxylic acid (4-morpholin-4-yl-phenyl)-amide]	> 42
CN1CCC[C@H]1COc1ccc2c(C3CCN(C(=O)Nc4ccc(N5CCCC5)cc4)CC3)ncnc2c1 [Compound 151, (S)-4-[7-(1-Methyl-pyrrolidin-2-ylmethoxy)-quinazolin-4-yl]-piperidine-1-carboxylic acid (4-pyrrolidin-1-yl-phenyl)-amide]	> 42
O=C(Nc1ccc(N2CCOCC2)cc1)N1CCC(c2ncnc3cc(OCCN4CCC[C@H]4CO)ccc23)CC1 [Compound 153, (S)-4-{7-[2-(2-Hydroxymethyl-pyrrolidin-1-yl)-ethoxy]-quinazolin-4-yl}-piperidine-1-carboxylic acid (4-morpholin-4-yl-phenyl)-amide]	> 42
CC(=O)N1CC[C@@H](Oc2ccc3c(C4CCN(C(=O)Nc5ccc(N6CCCC6)cc5)CC4)ncnc3c2)C1 [Compound 154, (R)-4-[7-(1-Acetyl-pyrrolidin-3-yloxy)-quinazolin-4-yl]-piperidine-1-carboxylic acid (4-pyrrolidin-1-yl-phenyl)-amide]	> 42
CN1CCN(CCOc2ccc3c(C4CCN(C(=O)Nc5ccc(N6CCOCC6)cc5)CC4)ncnc3c2)CC1 [Compound 156, 4-{7-[2-(4-Methyl-piperazin-1-yl)-ethoxy]-quinazolin-4-yl}-piperidine-1-carboxylic acid (4-morpholin-4-yl-phenyl)-amide]	> 21

More lines, now with the values ahead:

IC50 [µM]	Compound
10.2	O=C(Nc1ccc(N2CCOCC2)cc1)N1CCC(c2ncnc3cc(N4CC[C@@H](O)C4)ccc23)CC1 [Compound 126, (R)-4-[7-(3-Hydroxy-pyrrolidin-1-yl)-quinazolin-4-yl]-piperidine-1-carboxylic acid (4-morpholin-4-yl-phenyl)-amide]
13.6	CN1CCC(Oc2ccc3c(C4CCN(C(=O)Nc5ccc(N6CCOCC6)cc5)CC4)ncnc3c2)CC1 [Compound 127, 4-[7-(1-Methyl-piperidin-4-yloxy)-quinazolin-4-yl]-piperidine-1-carboxylic acid (4-morpholin-4-yl-phenyl)-amide]
3.11	O=C(Nc1ccc(N2CCCC2)cc1)N1CCC(c2ncnc3cc(N4CC[C@H](O)C4)ccc23)CC1 [Compound 129, (S)-4-[7-(3-Hydroxy-pyrrolidin-1-yl)-quinazolin-4-yl]-piperidine-1-carboxylic acid (4-pyrrolidin-1-yl-phenyl)-amide]
5.31	CC(C)Oc1ccc(NC(=O)N2CCC(c3ncnc4ccc(N5CCN(C)CC5)cc34)CC2)cc1 [Compound 131, 4-[6-(4-Methyl-piperazin-1-yl)-quinazolin-4-yl]-piperidine-1-carboxylic acid (4-isopropoxy-phenyl)-amide]
15	CC(=O)N1CCN(c2ccc3c(C4CCN(C(=O)Nc5ccc(N6CCOCC6)cc5)CC4)ncnc3c2)CC1 [Compound 141, 4-[7-(4-Acetyl-piperazin-1-yl)-quinazolin-4-yl]-piperidine-1-carboxylic acid (4-morpholin-4-yl-phenyl)-amide]
17.4	CS(=O)(=O)N1CCN(c2ccc3c(C4CCN(C(=O)Nc5ccc(N6CCOCC6)cc5)CC4)ncnc3c2)CC1 [Compound 142, 4-[7-(4-Methanesulfonyl-piperazin-1-yl)-quinazolin-4-yl]-piperidine-1-carboxylic acid (4-morpholin-4-yl-phenyl)-amide]
7.6	CN(C)C(=O)N1CCN(c2ccc3c(C4CCN(C(=O)Nc5ccc(N6CCOCC6)cc5)CC4)ncnc3c2)CC1 [Compound 143, 4-{4-[1-(4-Morpholin-4-yl-phenylcarbamoyl)-piperidin-4-yl]-quinazolin-7-yl}-piperazine-1-carboxylic acid dimethylamide]
14.2	CN(C)CC(=O)N1CCN(c2ccc3c(C4CCN(C(=O)Nc5ccc(N6CCOCC6)cc5)CC4)ncnc3c2)CC1 [Compound 144, 4-{7-[4-(2-Dimethylamino-acetyl)-piperazin-1-yl]-quinazolin-4-yl}-piperidine-1-carboxylic acid (4-morpholin-4-yl-phenyl)-amide]
21.1	O=C(Nc1ccc(N2CCOCC2)cc1)N1CCC(c2ncnc3cc(N4CCOCC4)ccc23)CC1 [Compound 145, 4-(7-Morpholin-4-yl-quinazolin-4-yl)-piperidine-1-carboxylic acid (4-morpholin-4-yl-phenyl)-amide]
2.73	O=C(Nc1ccc(N2CCCC2)cc1)N1CCC(c2ncnc3cc(OCCN4CCOC4=O)ccc23)CC1 [Compound 147, 4-{7-[2-(2-Oxo-oxazolidin-3-yl)-ethoxy]-quinazolin-4-yl}-piperidine-1-carboxylic acid (4-pyrrolidin-1-yl-phenyl)-amide]
26.7	O=C(Nc1ccc(N2CCOCC2)cc1)N1CCC(c2ncnc3cc(OCCN4CCOC4=O)ccc23)CC1 [Compound 148, 4-{7-[2-(2-Oxo-oxazolidin-3-yl)-ethoxy]-quinazolin-4-yl}-piperidine-1-carboxylic acid (4-morpholin-4-yl-phenyl)-amide]
7.26	CN(C)[C@@H]1CCN(c2ccc3c(C4CCN(C(=O)Nc5ccc(N6CCCC6)cc5)CC4)ncnc3c2)C1 [Compound 149, (R)-4-[7-(3-Dimethylamino-pyrrolidin-1-yl)-quinazolin-4-yl]-piperidine-1-carboxylic acid (4-pyrrolidin-1-yl-phenyl)-amide]
32.7	O=C(Nc1ccc(N2CCCC2)cc1)N1CCC(c2ncnc3cc(OCCN4CCC[C@H]4CO)ccc23)CC1 [Compound 152, (S)-4-{7-[2-(2-Hydroxymethyl-pyrrolidin-1-yl)-ethoxy]-quinazolin-4-yl}-piperidine-1-carboxylic acid (4-pyrrolidin-1-yl-phenyl)-amide]
11	CNC(=O)C1CCN(c2ccc3c(C4CCN(C(=O)Nc5ccc(N6CCCC6)cc5)CC4)ncnc3c2)CC1 [Compound 155, 4-[7-(4-Carboxylic acid methylamide-piperidin-1-yl)-quinazolin-4-yl]-piperidine-1-carboxylic acid (4-pyrrolidin-1-yl-phenyl)-amide]
